The assay has as its target T1, APOL1 (Homo sapiens, UniProt O14791).
T1 sequence (O14791 1-398 S342G/I384M): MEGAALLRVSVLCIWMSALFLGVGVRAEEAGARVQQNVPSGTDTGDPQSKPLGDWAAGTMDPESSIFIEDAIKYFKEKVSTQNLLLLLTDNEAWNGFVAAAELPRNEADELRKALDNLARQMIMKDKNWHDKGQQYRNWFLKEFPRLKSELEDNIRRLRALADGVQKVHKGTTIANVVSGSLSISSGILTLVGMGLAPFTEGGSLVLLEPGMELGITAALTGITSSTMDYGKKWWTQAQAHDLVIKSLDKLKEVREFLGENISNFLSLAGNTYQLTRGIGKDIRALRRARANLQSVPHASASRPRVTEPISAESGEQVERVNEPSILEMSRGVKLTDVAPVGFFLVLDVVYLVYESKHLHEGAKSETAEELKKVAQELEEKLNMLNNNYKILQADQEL
Kind of assay: MultiTox-Fluor Multiplex Cytotoxicity Assay in tet-inducible APOL1 T-REx-HEK293 cells (cell rescue, ratio of dead to live cells). Format: cell-based. To be noted: tet-inducible transgenic APOL1 T-REx-HEK293 cell lines, 50 ng/mL tet, 24 hours; read-out: IP50 (i.e., IC50 for cell proliferation). Summed up: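 T-REx-HEK293 cells with tet-inducible APOL1 were treated with compound (10 μM top, 10-point 3-fold dilution, duplicate) plus 50 ng/mL tetracycline for 24 h at 37° C, in DMEM with 2% tet-free FBS. MultiTox-Fluor protease signals gave a dead/live ratio, normalized to no tet (100% viability) and tet alone (0%).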

pIC50: −log10 of the molar value.

With `CCc1cc2c(s1)CCO[C@@]21CCN(C[C@H]2C[C@@H](NS(=O)(=O)c3cccs3)C2)[C@@H](C)C1` [Compound 405], the pIC50 was > 7.00.

Regarding `CCc1cc2c(s1)CCO[C@@]21CCN(C[C@H]2C[C@@H](NS(=O)(=O)c3cccc(C)c3)C2)[C@@H](C)C1` [Compound 406], the pIC50 is > 7.00.

Regarding `CCc1cc2c(s1)CCO[C@@]21CCN(C[C@H]2C[C@@H](NS(=O)(=O)c3cncc(Cl)c3)C2)[C@@H](C)C1` [Compound 407], the pIC50 was > 7.00.

As for `CCc1cc2c(s1)CCO[C@@]21CCN(C[C@H]2C[C@@H](NS(=O)(=O)c3ccccc3F)C2)[C@@H](C)C1` [Compound 408], the pIC50 is > 7.00.

Regarding `CCc1cc2c(s1)CCO[C@@]21CCN(C[C@H]2C[C@@H](NS(=O)(=O)c3ccccc3Cl)C2)[C@@H](C)C1` [Compound 409], the pIC50 was > 7.00.

In the case of `CCc1cc2c(s1)CCO[C@@]21CCN(C[C@H]2C[C@@H](NS(C)(=O)=O)C2)[C@@H](C)C1` [Compound 410], the pIC50 is > 7.00.

For `CCc1cc2c(s1)CCO[C@@]21CCN(C[C@H]2C[C@@H](NS(=O)(=O)C(F)(F)F)C2)[C@@H](C)C1` [Compound 411], the pIC50 was 6.30 to 7.00.

Turning to `CCc1cc2c(s1)CCO[C@@]21CCN(C[C@H]2C[C@@H](NS(=O)(=O)c3cnccc3Cl)C2)[C@@H](C)C1` [Compound 412], the pIC50 is > 7.00.

For the compound `CCc1cc2c(s1)CCO[C@@]21CCN(C[C@H]2C[C@@H](NS(=O)(=O)c3ccc(C(N)=O)cc3)C2)[C@@H](C)C1` [Compound 413], the pIC50 is > 7.00.

For `CCc1cc2c(s1)CCO[C@@]21CCN(C[C@H]2C[C@@H](NS(=O)(=O)CCC3NC(=O)NC3=O)C2)[C@@H](C)C1` (some centres unmarked) [Compound 415], the pIC50 is 6.30 to 7.00.

With `CCc1cc2c(s1)CCO[C@@]21CCN(C[C@H]2C[C@@H](NS(=O)(=O)c3ccc4[nH]c(=O)[nH]c4c3)C2)[C@@H](C)C1` [Compound 416], the pIC50 is 6.30 to 7.00.

Turning to `CCc1cc2c(s1)CCO[C@@]21CCN(C[C@H]2C[C@@H](NS(=O)(=O)CCCO)C2)[C@@H](C)C1` [Compound 417], the pIC50 is 6.00 to 6.30.

For `CCc1cc2c(s1)CCO[C@@]21CCN(C[C@H]2C[C@H](NC(=O)OC(C)(C)C)C2)[C@@H](C)C1` [Compound 418, tert-butyl N-[3-[[(2′S,4R)-2-ethyl-2′-methyl-spiro[6,7-dihydrothieno[3,2-c]pyran-4,4′-piperidine]-1′-yl]methyl]cyclobutyl]carbamate], the pIC50 was 6.30 to 7.00.

On to `CCc1cc2c(s1)CCO[C@@]21CCN(C[C@H]2C[C@H](N)C2)[C@@H](C)C1` [Compound 419, 3-[[(2′S,4R)-2-ethyl-2′-methyl-spiro[6,7-dihydrothieno[3,2-c]pyran-4,4′-piperidine]-1′-yl]methyl]cyclobutanamine], for which the pIC50 was 6.00 to 6.30.

`CCc1cc2c(s1)CCO[C@@]21CCN(CC2CN(C(=O)OC(C)(C)C)C2)[C@@H](C)C1` [Compound 420, tert-butyl 3-[[(2′S,4R)-2-ethyl-2′-methyl-spiro[6,7-dihydrothieno[3,2-c]pyran-4,4′-piperidine]-1′-yl]methyl]azetidine-1-carboxylate]: the pIC50 was > 7.00.

For `CCc1cc2c(s1)CCO[C@@]21CCN(CC2CNC2)[C@@H](C)C1` [Compound 421, (2′S,4R)-1′-(azetidin-3-ylmethyl)-2-ethyl-2′-methyl-spiro[6,7-dihydrothieno[3,2-c]pyran-4,4′-piperidine]], the pIC50 was 6.00 to 6.30.

On to `CCc1cc2c(s1)CCO[C@@]21CCN(CC2CN(C(=O)c3nonc3N)C2)[C@@H](C)C1` [Compound 422, (4-amino-1,2,5-oxadiazol-3-yl)-[3-[[(2′S,4R)-2-ethyl-2′-methyl-spiro[6,7-dihydrothieno[3,2-c]pyran-4,4′-piperidine]-1′-yl]methyl]azetidin-1-yl]methanone], for which the pIC50 is > 7.00.

On to `CCc1cc2c(s1)CCO[C@@]21CCN(CC2CN(C(=O)c3ncccc3O)C2)[C@@H](C)C1` [Compound 423, [3-[[(2′S,4R)-2-ethyl-2′-methyl-spiro[6,7-dihydrothieno[3,2-c]pyran-4,4′-piperidine]-1′-yl]methyl]azetidin-1-yl]-(3-hydroxy-2-pyridyl)methanone], for which the pIC50 was > 7.00.

Turning to `CCc1cc2c(s1)CCO[C@@]21CCN(CC2CN(C(=O)OC)C2)[C@@H](C)C1` [Compound 424, methyl 3-[[(2′S,4R)-2-ethyl-2′-methyl-spiro[6,7-dihydrothieno[3,2-c]pyran-4,4′-piperidine]-1′-yl]methyl]azetidine-1-carboxylate], the pIC50 was 6.00 to 6.30.

As to `CCc1cc2c(s1)CCO[C@@]21CCN(CC2CN(C(=O)c3ccon3)C2)[C@@H](C)C1` [Compound 425], the pIC50 was > 7.00.

With `CCc1cc2c(s1)CCO[C@@]21CCN(CC2CN(C(=O)c3nonc3C)C2)[C@@H](C)C1` [Compound 426], the pIC50 is > 7.00.

Regarding `CCc1cc2c(s1)CCO[C@@]21CCN(CC2CN(C(=O)c3ccnn3C)C2)[C@@H](C)C1` [Compound 427], the pIC50 was > 7.00.

As for `CCc1cc2c(s1)CCO[C@@]21CCN(CC2CN(C(=O)c3cccc(CO)c3)C2)[C@@H](C)C1` [Compound 428], the pIC50 is > 7.00.

Take `CCc1cc2c(s1)CCO[C@@]21CCN(CC2CN(C(=O)c3cnn(C)c3)C2)[C@@H](C)C1` [Compound 429]: the pIC50 is > 7.00.

For `CCc1cc2c(s1)CCO[C@@]21CCN(CC2CN(C(=O)c3ccncc3)C2)[C@@H](C)C1` [Compound 430], the pIC50 is > 7.00.

In the case of `CCc1cc2c(s1)CCO[C@@]21CCN(CC2CN(C(=O)c3ccccc3)C2)[C@@H](C)C1` [Compound 431], the pIC50 is > 7.00.

`CCc1cc2c(s1)CCO[C@@]21CCN(CC2CN(C(=O)C(C)S(C)(=O)=O)C2)[C@@H](C)C1` (some centres unmarked) [Compound 432]: the pIC50 was > 7.00.

`CCc1cc2c(s1)CCO[C@@]21CCN(CC2CN(C(=O)c3cn[nH]c3)C2)[C@@H](C)C1` [Compound 433]: the pIC50 was > 7.00.

On to `CCc1cc2c(s1)CCO[C@@]21CCN(CC2CN(C(=O)CCC3CCCC3)C2)[C@@H](C)C1` [Compound 434], for which the pIC50 is > 7.00.

With `CCc1cc2c(s1)CCO[C@@]21CCN(CC2CN(C(=O)CCCS(C)(=O)=O)C2)[C@@H](C)C1` [Compound 435], the pIC50 is > 7.00.

With `CCc1cc2c(s1)CCO[C@@]21CCN(CC2CN(C(=O)COC)C2)[C@@H](C)C1` [Compound 436], the pIC50 was > 7.00.

With `CCc1cc2c(s1)CCO[C@@]21CCN(CC2CN(C(=O)C3(O)CCOCC3)C2)[C@@H](C)C1` [Compound 437], the pIC50 is > 7.00.

As to `CCc1cc2c(s1)CCO[C@@]21CCN(CC2CN(C(=O)Cc3ccncc3)C2)[C@@H](C)C1` [Compound 438], the pIC50 is > 7.00.

With `CCc1cc2c(s1)CCO[C@@]21CCN(CC2CN(C(=O)CCCOC)C2)[C@@H](C)C1` [Compound 439], the pIC50 was > 7.00.

Regarding `CCc1cc2c(s1)CCO[C@@]21CCN(CC2CN(C(=O)C3COCCO3)C2)[C@@H](C)C1` (some centres unmarked) [Compound 440], the pIC50 was > 7.00.

Turning to `CCc1cc2c(s1)CCO[C@@]21CCN(CC2CN(C(=O)Cc3ccncn3)C2)[C@@H](C)C1` [Compound 441], the pIC50 is > 7.00.

Consider `CCc1cc2c(s1)CCO[C@@]21CCN(CC2CN(C(=O)COC(C)(C)C)C2)[C@@H](C)C1` [Compound 442], for which the pIC50 is > 7.00.

On to `CCc1cc2c(s1)CCO[C@@]21CCN(CC2CN(C(=O)C(C)(C)O)C2)[C@@H](C)C1` [Compound 443], for which the pIC50 was > 7.00.

Take `CCc1cc2c(s1)CCO[C@@]21CCN(CC2CN(C(=O)CC3CCS(=O)(=O)CC3)C2)[C@@H](C)C1` [Compound 444]: the pIC50 is > 7.00.

With `CCc1cc2c(s1)CCO[C@@]21CCN(CC2CN(C(=O)CN3CCS(=O)(=O)CC3)C2)[C@@H](C)C1` [Compound 445], the pIC50 is > 7.00.

Take `CCc1cc2c(s1)CCO[C@@]21CCN(CC2CN(C(=O)C3CCS(=O)(=O)N3)C2)[C@@H](C)C1` (some centres unmarked) [Compound 446]: the pIC50 is > 7.00.

Take `CCc1cc2c(s1)CCO[C@@]21CCN(CC2CN(C(=O)CCO)C2)[C@@H](C)C1` [Compound 447]: the pIC50 was 6.30 to 7.00.

Consider `CCc1cc2c(s1)CCO[C@@]21CCN(CC2CN(C(=O)C3CCCCC3)C2)[C@@H](C)C1` [Compound 448], for which the pIC50 is 6.30 to 7.00.

Consider `CCc1cc2c(s1)CCO[C@@]21CCN(CC2CN(C(=O)CS(C)(=O)=O)C2)[C@@H](C)C1` [Compound 449], for which the pIC50 was 6.30 to 7.00.

For `CCc1cc2c(s1)CCO[C@@]21CCN(CC2CN(C(=O)CC3CS(=O)(=O)C3)C2)[C@@H](C)C1` [Compound 450], the pIC50 was 6.30 to 7.00.

For the compound `CCc1cc2c(s1)CCO[C@@]21CCN(CC2CN(C(=O)C3C4COCC43)C2)[C@@H](C)C1` (some centres unmarked) [Compound 451], the pIC50 was 6.30 to 7.00.

Regarding `CCc1cc2c(s1)CCO[C@@]21CCN(CC2CN(C(=O)CO)C2)[C@@H](C)C1` [Compound 452], the pIC50 is 6.30 to 7.00.

As for `CCc1cc2c(s1)CCO[C@@]21CCN(CC2CN(C(=O)CCS(N)(=O)=O)C2)[C@@H](C)C1` [Compound 453], the pIC50 was 6.30 to 7.00.

Turning to `CCc1cc2c(s1)CCO[C@@]21CCN(CC2CN(C(=O)CCS(C)(=O)=O)C2)[C@@H](C)C1` [Compound 454], the pIC50 is 6.30 to 7.00.

In the case of `CCc1cc2c(s1)CCO[C@@]21CCN(CC2CN(C(=O)Cc3cnn(C)c3)C2)[C@@H](C)C1` [Compound 455], the pIC50 was 6.30 to 7.00.
